Reference: article PMC7269146, “Jingzhaotoxin-X, a gating modifier of Kv4.2 and Kv4.3 potassium channels purified from the venom of the Chinese tarantula Chilobrachys jingzhao” (The Journal of Venomous Animals and Toxins Including …, 2020)
“Also recorded” adds a separate entry of the source. Where a SMILES comes first, the peptide text is derived from it. Bridges are numbered along the chain shown (N, C = ends).

Columns and labels:
Nav1.5 = assay: voltage-clamp, Nav1.5 currents; assay type: cell-based, human; conditions: 1 μM; n = 3
Text: (§1) Rat cDNA genes encoding Kv4.2 (Accession: NM_031730.2) and Kv4.3 (Accession: AB003587.1) were subcloned to vector pcDNA3.1. In addition, human cDNA genes encoding Nav1.7 (Accession: DQ857292.1) and Nav1.5 (Accession: AB158469.2) were subcloned to vectors pcDNA3.1-mod and pcDNA3.1, separately. Then, Kv4.2, Kv4.3, Nav1.5 and Nav1.7 constructs were transiently transfected into the human embryonic kidney 293t (HEK293t) cells using lipofectamine 2000 (Invitrogen, USA) in accordance with manufacturer protocols. Thereafter, HEK293 cells were inoculated within Dulbecco’s modified Eagle’s medium (DMEM) containing 10% fetal bovine serum (FBS) at 5% CO2 and 37°C. The Kv4.3 channel and the Kv4.2 counterpart were then transfected in the absence of β subunit. Subsequently, cells were incubated with a DNA-lipofectamine mixture (one reporter plasmid for green fluorescence protein and channel constructs) for 4-6 h, and were washed with the fresh medium.
An EPC-10 patch-clamp amplifier (HEKA, Germany) was employed to record the potassium currents at the configuration of whole-cell patch-clamp under an ambient temperature of 22-25°C. The resistance was 2.0-3.0 MΩ when the recording pipette contained a full volume of internal solution (supplemented with 140 mM KCl, 10 mM HEPES, 2.5 mM MgCl2, 5 mM ATP and 11 mM EGTA). […]

Kv4.2 = target: T1, Kv4.2 (Rattus norvegicus, UniProt Q63881); assay: microelectrode voltage-clamp, Xenopus laevis oocytes, Kv4.2; assay type: cell-based; conditions: +20 mV from -90 mV, n = 5, read-out: inhibition of Kv4.2 current
T1 construct: expressed in transfected cells; host or cells: HEK293t
T1 sequence (Q63881 1-630): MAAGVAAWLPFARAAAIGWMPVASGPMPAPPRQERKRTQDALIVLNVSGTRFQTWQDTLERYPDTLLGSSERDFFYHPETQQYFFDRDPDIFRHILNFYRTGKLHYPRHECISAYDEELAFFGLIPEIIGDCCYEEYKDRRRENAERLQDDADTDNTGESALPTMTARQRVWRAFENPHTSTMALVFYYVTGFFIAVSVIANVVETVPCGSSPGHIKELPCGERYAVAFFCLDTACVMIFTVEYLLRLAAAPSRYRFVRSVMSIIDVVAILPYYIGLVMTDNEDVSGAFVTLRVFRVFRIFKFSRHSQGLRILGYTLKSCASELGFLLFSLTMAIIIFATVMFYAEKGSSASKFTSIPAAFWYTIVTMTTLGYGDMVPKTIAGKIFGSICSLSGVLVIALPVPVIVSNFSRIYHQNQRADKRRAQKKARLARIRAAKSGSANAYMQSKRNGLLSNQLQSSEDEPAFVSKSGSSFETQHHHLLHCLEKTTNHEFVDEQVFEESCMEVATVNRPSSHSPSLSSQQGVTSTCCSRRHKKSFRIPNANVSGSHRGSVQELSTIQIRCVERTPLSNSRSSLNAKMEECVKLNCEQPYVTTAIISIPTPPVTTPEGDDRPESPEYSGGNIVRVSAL
Text: as §1
Briefly, plasmids were linearized, and transcription was carried out according to the standardized protocol. Afterwards, the capped cRNAs that encoded the related ion channels were prepared. […]

Compound: CC(C)C[C@@H]1NC(=O)[C@H](CCCCN)NC(=O)[C@H](Cc2ccc(O)cc2)NC(=O)[C@@H]2CSSC[C@@H]3NC(=O)[C@H](Cc4ccc(O)cc4)NC(=O)[C@H](Cc4ccccc4)NC(=O)CNC(=O)[C@H](C)NC(=O)[C@H](CSSC[C@H](NC(=O)[C@@H](N)CC(C)C)C(=O)N[C@@H](CO)C(=O)N[C@@H](CCCNC(=N)N)C(=O)N[C@@H](CCC(=O)O)C(=O)NCC(=O)N[C@@H](CCC(=O)O)C(=O)N[C@@H](Cc4ccccc4)C(=O)N2)NC(=O)[C@H](CSSC[C@@H](C(=O)N[C@@H](Cc2ccc(O)cc2)C(=O)N[C@@H](CCCNC(=N)N)C(=O)N[C@@H](CC(N)=O)C(=O)O)NC(=O)[C@H](Cc2c[nH]cn2)NC(=O)[C@H](CC(C)C)NC(=O)[C@H](C(C)C)NC(=O)[C@H](Cc2ccccc2)NC(=O)[C@H](C)NC(=O)[C@H](CCCCN)NC3=O)NC(=O)[C@H](CCCCN)NC(=O)[C@H](CCCNC(=N)N)NC1=O [JZTX-X, Jingzhaotoxin-X] (H-LCSREGEFCYKLRKCCAGFYCKAFVLHCYRN-OH; disulfide 2-16, 9-21, 15-28; N-terminus assumed)
- effect on Nav1.5 channel (Nav1.5): negligible effect; also recorded: did not affect the currents
- inhibition at 0.1 µM (Kv4.2; 0.1 μM (100 nM)): 57.8 ± 4.6%
- inhibition at 0.5 µM (Kv4.2; 0.5 μM (500 nM)): 83.8 ± 5.1%
